Source: ChEMBL document CHEMBL1208740, “beta-Secretase (BACE-1) inhibitory effect of biflavonoids” (Bioorg Med Chem Lett, 2010)

The compounds below were run against Beta-secretase 1 (Homo sapiens, UniProt P56817) (assay: Inhibition of BACE1 after 60 mins by FRET assay).
Sequence of Beta-secretase 1 (P56817 whole entry): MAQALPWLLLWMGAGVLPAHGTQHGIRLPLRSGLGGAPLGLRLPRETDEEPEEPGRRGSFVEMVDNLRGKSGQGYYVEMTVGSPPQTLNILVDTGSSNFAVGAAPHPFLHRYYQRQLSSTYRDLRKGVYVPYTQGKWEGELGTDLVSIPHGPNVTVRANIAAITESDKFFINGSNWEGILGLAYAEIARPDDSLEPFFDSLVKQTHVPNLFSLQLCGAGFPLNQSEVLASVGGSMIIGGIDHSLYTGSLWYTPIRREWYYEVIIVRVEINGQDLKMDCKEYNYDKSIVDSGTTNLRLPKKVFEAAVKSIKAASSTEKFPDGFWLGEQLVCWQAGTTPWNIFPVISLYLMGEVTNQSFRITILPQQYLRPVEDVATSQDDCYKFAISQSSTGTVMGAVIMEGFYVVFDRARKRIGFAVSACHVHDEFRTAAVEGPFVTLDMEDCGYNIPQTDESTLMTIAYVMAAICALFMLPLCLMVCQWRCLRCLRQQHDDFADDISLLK
Work on `COc1cc(O)c2c(=O)cc(-c3ccc(O)c(-c4c(OC)cc(O)c5c(=O)cc(-c6ccc(O)cc6)oc45)c3)oc2c1` yielded an IC50 of 6.25 µM.
Work on `COc1ccc([C@@H]2CC(=O)c3c(cc(OC)c(C)c3O)O2)cc1-c1c(O)cc(O)c2c(=O)cc(-c3ccc(O)cc3)oc12` yielded an IC50 of 0.35 µM.
With `COc1cc(O)c2c(=O)cc(-c3ccc(OC)c(-c4c(OC)cc(O)c5c(=O)cc(-c6ccc(O)cc6)oc45)c3)oc2c1` the IC50 was over 10 µM.
Compound `COc1ccc(-c2cc(=O)c3c(O)cc(O)cc3o2)cc1-c1c(OC)cc(O)c2c(=O)cc(-c3ccc(O)cc3)oc12` has an IC50 of over 10 µM.
Compound `COc1ccc(-c2cc(=O)c3c(O)cc(OC)c(-c4cc(-c5cc(=O)c6c(O)cc(OC)cc6o5)ccc4OC)c3o2)cc1` has an IC50 of over 10 µM.
For `COc1ccc(-c2cc(=O)c3c(O)cc(OC)c(-c4cc(-c5cc(=O)c6c(O)cc(O)cc6o5)ccc4O)c3o2)cc1` [7'',4'''-dimethylamentoflavone], the IC50 was over 10 µM.
Compound `O=c1cc(-c2ccc(O)c(-c3c(O)cc(O)c4c(=O)cc(-c5ccc(O)cc5)oc34)c2)oc2cc(O)cc(O)c12` [AMENTOFLAVONE] has an IC50 of 1.54 µM.
Work on `COc1ccc(-c2cc(=O)c3c(O)cc(O)cc3o2)cc1-c1c(O)cc(O)c2c(=O)cc(-c3ccc(O)cc3)oc12` [BILOBETIN] yielded an IC50 of 2.02 µM.
`O=c1cc(-c2ccc(O)cc2)oc2c(-c3c(O)cc(O)c4c(=O)cc(-c5ccc(O)cc5)oc34)c(O)cc(O)c12` [CUPRESSUFLAVONE] showed an IC50 of over 10 µM.
For `COc1cc(O)c2c(=O)cc(-c3ccc(OC)c(-c4c(O)cc(O)c5c(=O)cc(-c6ccc(O)cc6)oc45)c3)oc2c1` [GINKGETIN], the IC50 was 4.18 µM.
`COc1ccc(-c2cc(=O)c3c(O)cc(OC)c(-c4cc(-c5cc(=O)c6c(O)cc(OC)cc6o5)ccc4O)c3o2)cc1` [HEVEAFLAVONE] gave an IC50 of over 10 µM.
`O=c1cc(-c2ccc(Oc3c(O)cc4oc(-c5ccc(O)cc5)cc(=O)c4c3O)cc2)oc2cc(O)cc(O)c12` [HINOKIFLAVONE] gave an IC50 of over 10 µM.
Compound `COc1ccc(-c2cc(=O)c3c(O)cc(O)c(-c4cc(-c5cc(=O)c6c(O)cc(O)cc6o5)ccc4OC)c3o2)cc1` [ISOGINKGETIN] has an IC50 of 3.01 µM.
`COc1ccc(-c2cc(=O)c3c(O)cc(OC)c(-c4cc(-c5cc(=O)c6c(O)cc(O)cc6o5)ccc4OC)c3o2)cc1` [KAYAFLAVONE] was tested, and the IC50 was over 10 µM.
With `COc1ccc(-c2cc(=O)c3c(O)cc(O)c(-c4cc(-c5cc(=O)c6c(O)cc(O)cc6o5)ccc4O)c3o2)cc1` [PODOCARPUSFLAVONE A] the IC50 was 0.99 µM.
For `COc1ccc(-c2cc(=O)c3c(O)cc(O)c(-c4cc(-c5cc(=O)c6c(O)cc(OC)cc6o5)ccc4O)c3o2)cc1` [PODOCARPUSFLAVONE B], the IC50 was 4.21 µM.
In the case of `O=c1cc(-c2ccc(O)c(-c3c(O)cc4oc(-c5ccc(O)cc5)cc(=O)c4c3O)c2)oc2cc(O)cc(O)c12` [ROBUSTAFLAVONE], the IC50 is reported as over 10 µM.
For `COc1ccc(-c2cc(=O)c3c(O)cc(O)c(-c4cc(-c5cc(=O)c6c(O)cc(OC)cc6o5)ccc4OC)c3o2)cc1` [SCIADOPITISIN], the IC50 was over 10 µM.
`COc1cc(O)c2c(=O)cc(-c3ccc(O)c(-c4c(O)cc(O)c5c(=O)cc(-c6ccc(O)cc6)oc45)c3)oc2c1` [SEQUOIAFLAVONE] showed an IC50 of 1.4 µM.
For `COc1cc(O)c2c(=O)cc(-c3ccc(O)cc3)oc2c1-c1cc(-c2cc(=O)c3c(O)cc(O)cc3o2)ccc1O` [SOTETSUFLAVONE], the IC50 was 1.58 µM.
